System: CREF/RasV12
Test: Apoptosis by flow cytometry (cells with hypodiploid DNA content) in Ras-transformed fibroblasts
Format: cell-based, rat

Structure (SMILES): C[C@@H]1C[C@@H]([C@H](O)CC2CC(=O)NC(=O)C2)C(=O)[C@@H](C)C1 [cycloheximide]
- lovastatin-induced apoptosis in the presence of translational inhibitors: blocked apoptosis

Structure (SMILES): CC[C@H](C)C(=O)O[C@H]1C[C@@H](C)C=C2C=C[C@H](C)[C@H](CC[C@@H]3C[C@@H](O)CC(=O)O3)[C@H]21 [lovastatin]
- apoptosis observed in the presence of lovastatin alone (5 μM lovastatin, 24 h): 2 to 8%

Reference: patent publication US20030144190A1, “Method of modulating and antiapoptotic and antiapoptotic pathways in cells” (priority 2003, published 2003)
